From ChEMBL document CHEMBL1155491, “Acylurea connected straight chain hydroxamates as novel histone deacetylase inhibitors: Synthesis, SAR, and in vivo antitumor activity” (Bioorg Med Chem Lett, 2010)
In brackets after ≈: the same amount, converted by molar mass. Activity calls are given as the source filed them. The calls are words filed in the database; no cut-off is given here.

Columns and labels:
[1] = system: A2780; test: Antiproliferative activity against human A2780 cells; assay type: functional, cell-based
[2] = biological target: T1, Histone deacetylase 1 (Homo sapiens, UniProt Q13547)
T1 sequence (Q13547 whole entry): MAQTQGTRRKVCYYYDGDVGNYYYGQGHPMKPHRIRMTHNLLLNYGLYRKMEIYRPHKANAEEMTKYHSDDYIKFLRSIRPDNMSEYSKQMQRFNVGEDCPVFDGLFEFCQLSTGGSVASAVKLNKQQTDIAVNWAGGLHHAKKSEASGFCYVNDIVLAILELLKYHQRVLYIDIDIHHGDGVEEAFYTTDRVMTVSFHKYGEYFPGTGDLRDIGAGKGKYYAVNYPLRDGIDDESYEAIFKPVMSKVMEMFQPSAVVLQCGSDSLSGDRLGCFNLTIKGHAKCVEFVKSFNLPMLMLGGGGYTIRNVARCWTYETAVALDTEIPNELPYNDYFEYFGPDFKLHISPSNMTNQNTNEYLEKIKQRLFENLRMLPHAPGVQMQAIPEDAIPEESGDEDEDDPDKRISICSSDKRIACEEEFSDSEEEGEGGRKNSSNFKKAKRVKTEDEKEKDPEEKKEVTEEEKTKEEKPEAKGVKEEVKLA

[3] = biological target: T2, Protein deacetylase HDAC6 (Homo sapiens, UniProt Q9UBN7); test: Inhibition of HDAC6
T2 sequence (Q9UBN7 whole entry): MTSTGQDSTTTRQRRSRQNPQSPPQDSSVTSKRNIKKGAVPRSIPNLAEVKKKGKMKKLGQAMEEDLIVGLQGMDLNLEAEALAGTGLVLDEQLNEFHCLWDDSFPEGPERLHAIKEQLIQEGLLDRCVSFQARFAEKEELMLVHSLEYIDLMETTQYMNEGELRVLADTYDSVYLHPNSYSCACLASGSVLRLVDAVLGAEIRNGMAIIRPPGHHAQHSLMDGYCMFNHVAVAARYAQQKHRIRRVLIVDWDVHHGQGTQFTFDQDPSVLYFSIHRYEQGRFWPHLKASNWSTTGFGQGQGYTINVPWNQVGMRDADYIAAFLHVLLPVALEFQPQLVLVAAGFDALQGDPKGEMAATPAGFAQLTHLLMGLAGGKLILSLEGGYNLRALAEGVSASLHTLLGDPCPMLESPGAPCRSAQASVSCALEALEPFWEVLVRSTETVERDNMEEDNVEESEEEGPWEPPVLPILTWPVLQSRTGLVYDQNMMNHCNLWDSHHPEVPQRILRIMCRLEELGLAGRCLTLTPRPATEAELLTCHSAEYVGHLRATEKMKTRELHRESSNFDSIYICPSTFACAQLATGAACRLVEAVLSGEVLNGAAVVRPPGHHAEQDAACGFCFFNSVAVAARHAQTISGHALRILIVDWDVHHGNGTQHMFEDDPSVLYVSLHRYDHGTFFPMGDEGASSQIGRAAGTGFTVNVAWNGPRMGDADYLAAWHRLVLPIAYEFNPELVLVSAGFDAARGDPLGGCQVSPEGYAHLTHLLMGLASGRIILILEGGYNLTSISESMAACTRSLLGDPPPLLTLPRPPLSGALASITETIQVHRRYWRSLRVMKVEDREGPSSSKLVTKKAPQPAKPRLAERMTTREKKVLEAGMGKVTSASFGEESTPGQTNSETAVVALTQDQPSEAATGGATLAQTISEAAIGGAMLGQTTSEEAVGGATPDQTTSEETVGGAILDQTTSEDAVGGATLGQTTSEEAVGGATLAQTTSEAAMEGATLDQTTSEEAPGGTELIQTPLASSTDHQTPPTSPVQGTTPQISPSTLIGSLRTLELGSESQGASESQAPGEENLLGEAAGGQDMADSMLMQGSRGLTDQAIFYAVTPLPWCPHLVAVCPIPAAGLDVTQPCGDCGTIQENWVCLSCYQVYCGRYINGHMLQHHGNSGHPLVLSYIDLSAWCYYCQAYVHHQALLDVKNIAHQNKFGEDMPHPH

[4] = biological target: Histone deacetylase 2 (Homo sapiens, UniProt Q92769)
Sequence of Histone deacetylase 2 (Q92769 whole entry): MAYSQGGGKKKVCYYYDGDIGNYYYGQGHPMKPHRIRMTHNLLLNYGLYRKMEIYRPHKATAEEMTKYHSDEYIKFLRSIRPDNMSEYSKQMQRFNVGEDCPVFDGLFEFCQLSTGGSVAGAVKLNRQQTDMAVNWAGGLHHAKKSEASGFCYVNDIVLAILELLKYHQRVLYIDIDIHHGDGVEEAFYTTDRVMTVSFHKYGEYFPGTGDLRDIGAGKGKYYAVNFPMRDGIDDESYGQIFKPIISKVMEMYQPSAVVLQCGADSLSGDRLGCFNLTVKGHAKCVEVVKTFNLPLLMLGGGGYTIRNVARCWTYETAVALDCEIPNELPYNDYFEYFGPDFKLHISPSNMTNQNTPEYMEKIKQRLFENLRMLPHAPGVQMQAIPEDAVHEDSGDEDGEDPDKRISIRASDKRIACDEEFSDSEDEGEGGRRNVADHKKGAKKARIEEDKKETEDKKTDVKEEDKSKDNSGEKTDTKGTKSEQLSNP

[5] = system: HCT-116; test: Antiproliferative activity against human HCT116 cells; assay type: functional, cell-based
[6] = biological target: T1, Histone deacetylase 1; test: Inhibition of HDAC1 in human COLO205 cells assessed as induction of histone H3 acetylation at 10 uM by Western-immuno blotting; assay type: cell-based; details: COLO 205
[7] = biological target: Histone deacetylase 7 (Homo sapiens, UniProt Q8WUI4); test: Inhibition of HDAC7
Sequence of Histone deacetylase 7 (Q8WUI4 whole entry, looked up): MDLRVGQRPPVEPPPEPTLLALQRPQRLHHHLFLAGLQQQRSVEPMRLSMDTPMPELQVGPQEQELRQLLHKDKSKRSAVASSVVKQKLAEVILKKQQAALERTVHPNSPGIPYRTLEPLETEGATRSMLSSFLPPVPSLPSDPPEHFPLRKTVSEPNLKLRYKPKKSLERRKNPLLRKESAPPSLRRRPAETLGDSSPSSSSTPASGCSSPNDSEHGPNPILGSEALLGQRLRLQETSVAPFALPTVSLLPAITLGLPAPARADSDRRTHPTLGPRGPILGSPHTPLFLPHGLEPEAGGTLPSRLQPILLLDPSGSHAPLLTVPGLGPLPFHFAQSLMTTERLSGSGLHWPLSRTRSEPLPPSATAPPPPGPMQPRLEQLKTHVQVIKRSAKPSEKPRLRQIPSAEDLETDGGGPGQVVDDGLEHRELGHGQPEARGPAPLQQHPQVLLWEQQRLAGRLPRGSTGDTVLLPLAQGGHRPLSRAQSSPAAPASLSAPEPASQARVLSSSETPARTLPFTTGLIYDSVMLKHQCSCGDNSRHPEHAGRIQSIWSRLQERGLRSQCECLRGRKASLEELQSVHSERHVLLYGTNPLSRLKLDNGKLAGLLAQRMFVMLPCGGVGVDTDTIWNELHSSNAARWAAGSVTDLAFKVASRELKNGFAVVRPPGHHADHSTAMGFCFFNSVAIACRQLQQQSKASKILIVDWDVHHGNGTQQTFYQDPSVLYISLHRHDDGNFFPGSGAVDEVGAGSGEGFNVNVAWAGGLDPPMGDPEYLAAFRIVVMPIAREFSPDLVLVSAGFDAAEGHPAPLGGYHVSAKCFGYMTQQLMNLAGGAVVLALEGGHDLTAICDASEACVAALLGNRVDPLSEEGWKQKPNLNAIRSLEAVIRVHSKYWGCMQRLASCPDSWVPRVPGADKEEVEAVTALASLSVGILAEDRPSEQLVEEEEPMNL

[8] = biological target: T3, Histone deacetylase 11 (Homo sapiens, UniProt Q96DB2); test: Inhibition of HDAC11
T3 sequence (Q96DB2 whole entry): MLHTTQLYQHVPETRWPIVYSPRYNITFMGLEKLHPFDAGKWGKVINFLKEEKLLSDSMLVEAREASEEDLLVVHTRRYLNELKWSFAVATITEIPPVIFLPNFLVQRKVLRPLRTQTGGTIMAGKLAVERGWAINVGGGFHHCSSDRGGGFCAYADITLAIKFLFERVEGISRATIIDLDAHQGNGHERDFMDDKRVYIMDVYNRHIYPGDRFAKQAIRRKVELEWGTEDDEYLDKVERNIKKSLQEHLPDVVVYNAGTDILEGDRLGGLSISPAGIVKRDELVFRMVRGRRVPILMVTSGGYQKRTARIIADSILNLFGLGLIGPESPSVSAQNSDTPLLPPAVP

[9] = biological target: T4, Polyamine deacetylase HDAC10 (Homo sapiens, UniProt Q969S8); test: Inhibition of HDAC10
T4 sequence (Q969S8 whole entry): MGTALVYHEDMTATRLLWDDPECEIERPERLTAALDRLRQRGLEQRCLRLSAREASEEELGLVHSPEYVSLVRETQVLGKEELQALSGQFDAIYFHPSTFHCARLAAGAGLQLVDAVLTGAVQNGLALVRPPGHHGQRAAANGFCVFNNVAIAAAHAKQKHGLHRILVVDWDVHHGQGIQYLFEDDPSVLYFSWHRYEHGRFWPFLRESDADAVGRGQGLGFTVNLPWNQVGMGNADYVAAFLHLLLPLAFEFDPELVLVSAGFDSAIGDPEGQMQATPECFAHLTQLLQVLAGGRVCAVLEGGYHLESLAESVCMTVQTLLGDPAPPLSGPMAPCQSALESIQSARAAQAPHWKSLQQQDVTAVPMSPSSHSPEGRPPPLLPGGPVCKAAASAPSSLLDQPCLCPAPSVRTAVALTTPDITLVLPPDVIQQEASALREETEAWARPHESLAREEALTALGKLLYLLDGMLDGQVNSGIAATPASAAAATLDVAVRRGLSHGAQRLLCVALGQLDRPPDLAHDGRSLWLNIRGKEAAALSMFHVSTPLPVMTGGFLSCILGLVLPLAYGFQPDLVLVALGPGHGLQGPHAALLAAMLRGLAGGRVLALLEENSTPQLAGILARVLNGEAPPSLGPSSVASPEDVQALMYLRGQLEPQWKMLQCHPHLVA

[10] = Solubility at pH 7; assay type: physicochemical; details: buffer
[11] = biological target: Histone deacetylase 9 (Homo sapiens, UniProt Q9UKV0); test: Inhibition of HDAC9
Sequence of Histone deacetylase 9 (Q9UKV0 whole entry): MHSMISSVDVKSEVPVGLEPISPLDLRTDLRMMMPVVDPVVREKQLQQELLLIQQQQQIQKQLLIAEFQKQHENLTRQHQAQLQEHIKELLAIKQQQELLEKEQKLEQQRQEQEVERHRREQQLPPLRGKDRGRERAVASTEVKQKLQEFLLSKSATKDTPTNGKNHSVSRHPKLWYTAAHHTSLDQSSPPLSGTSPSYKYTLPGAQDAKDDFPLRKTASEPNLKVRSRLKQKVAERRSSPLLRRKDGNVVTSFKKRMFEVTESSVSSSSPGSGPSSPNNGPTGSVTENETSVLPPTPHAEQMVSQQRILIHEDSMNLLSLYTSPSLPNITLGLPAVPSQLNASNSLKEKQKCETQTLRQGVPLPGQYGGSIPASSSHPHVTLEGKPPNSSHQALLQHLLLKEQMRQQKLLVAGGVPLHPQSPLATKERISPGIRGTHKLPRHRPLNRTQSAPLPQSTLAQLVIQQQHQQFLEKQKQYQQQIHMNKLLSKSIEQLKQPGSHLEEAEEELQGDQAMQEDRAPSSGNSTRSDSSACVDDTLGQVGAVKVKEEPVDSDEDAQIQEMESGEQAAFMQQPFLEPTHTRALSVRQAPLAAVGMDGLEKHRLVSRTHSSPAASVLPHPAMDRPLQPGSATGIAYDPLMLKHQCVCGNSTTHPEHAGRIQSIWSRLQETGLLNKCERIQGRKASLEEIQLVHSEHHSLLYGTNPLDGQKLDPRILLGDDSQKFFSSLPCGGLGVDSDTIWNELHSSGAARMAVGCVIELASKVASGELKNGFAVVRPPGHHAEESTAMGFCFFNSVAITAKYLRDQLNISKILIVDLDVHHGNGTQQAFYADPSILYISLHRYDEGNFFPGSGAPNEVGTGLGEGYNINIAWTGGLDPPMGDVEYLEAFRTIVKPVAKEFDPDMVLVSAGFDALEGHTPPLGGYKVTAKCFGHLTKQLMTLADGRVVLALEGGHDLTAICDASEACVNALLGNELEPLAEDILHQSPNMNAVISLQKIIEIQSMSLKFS

[12] = system: PC-3; test: Antiproliferative activity against human PC3 cells; assay type: functional, cell-based
[13] = Octanol-water distribution coefficient, log D of the compound; assay type: physicochemical
[14] = Thermodynamic solubility at pH 7.4; assay type: physicochemical; details: buffer, read-out: Therm_solubility
[15] = Half life in rat liver microsome; assay type: ADME; details: liver microsomes
[16] = biological target: Histone deacetylase 4 (Homo sapiens, UniProt P56524); test: Inhibition of HDAC4
Sequence of Histone deacetylase 4 (P56524 whole entry): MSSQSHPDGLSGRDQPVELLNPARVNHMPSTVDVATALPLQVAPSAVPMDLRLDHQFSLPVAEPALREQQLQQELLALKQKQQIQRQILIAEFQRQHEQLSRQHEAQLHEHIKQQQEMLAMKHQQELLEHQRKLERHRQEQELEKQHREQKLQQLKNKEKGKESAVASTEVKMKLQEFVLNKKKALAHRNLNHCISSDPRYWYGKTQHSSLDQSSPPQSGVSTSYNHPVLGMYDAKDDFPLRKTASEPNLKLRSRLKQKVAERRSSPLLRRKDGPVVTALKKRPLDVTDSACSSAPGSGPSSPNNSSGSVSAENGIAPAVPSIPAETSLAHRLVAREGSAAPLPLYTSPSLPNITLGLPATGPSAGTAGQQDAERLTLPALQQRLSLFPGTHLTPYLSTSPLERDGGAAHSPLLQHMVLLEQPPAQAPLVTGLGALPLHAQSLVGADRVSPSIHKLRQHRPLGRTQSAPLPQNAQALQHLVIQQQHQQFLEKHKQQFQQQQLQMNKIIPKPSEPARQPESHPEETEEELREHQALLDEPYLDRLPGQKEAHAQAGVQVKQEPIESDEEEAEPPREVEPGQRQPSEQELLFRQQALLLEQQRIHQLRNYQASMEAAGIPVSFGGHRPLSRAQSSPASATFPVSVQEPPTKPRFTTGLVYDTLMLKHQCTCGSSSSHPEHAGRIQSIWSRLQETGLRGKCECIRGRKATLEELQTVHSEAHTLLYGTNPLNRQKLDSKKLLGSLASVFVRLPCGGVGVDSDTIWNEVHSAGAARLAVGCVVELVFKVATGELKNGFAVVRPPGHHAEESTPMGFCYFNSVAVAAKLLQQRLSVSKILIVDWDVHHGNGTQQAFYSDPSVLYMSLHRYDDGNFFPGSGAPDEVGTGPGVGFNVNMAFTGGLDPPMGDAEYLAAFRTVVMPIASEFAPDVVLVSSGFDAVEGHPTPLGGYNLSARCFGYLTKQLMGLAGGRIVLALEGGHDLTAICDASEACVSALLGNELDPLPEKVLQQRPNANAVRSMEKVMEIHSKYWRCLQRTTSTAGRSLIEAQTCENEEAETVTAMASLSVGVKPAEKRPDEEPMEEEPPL

[17] = biological target: T1, Histone deacetylase 1; remark: listed apart in the source
[18] = Half life in human liver microsome; assay type: ADME; details: liver microsomes
[19] = biological target: Histone deacetylase 5 (Homo sapiens, UniProt Q9UQL6); test: Inhibition of HDAC5
[20] = Half life in mouse liver microsome; assay type: ADME; details: liver microsomes
[21] = biological target: Histone deacetylase 3 (Homo sapiens, UniProt O15379); test: Inhibition of HDAC3
Sequence of Histone deacetylase 3 (O15379 whole entry): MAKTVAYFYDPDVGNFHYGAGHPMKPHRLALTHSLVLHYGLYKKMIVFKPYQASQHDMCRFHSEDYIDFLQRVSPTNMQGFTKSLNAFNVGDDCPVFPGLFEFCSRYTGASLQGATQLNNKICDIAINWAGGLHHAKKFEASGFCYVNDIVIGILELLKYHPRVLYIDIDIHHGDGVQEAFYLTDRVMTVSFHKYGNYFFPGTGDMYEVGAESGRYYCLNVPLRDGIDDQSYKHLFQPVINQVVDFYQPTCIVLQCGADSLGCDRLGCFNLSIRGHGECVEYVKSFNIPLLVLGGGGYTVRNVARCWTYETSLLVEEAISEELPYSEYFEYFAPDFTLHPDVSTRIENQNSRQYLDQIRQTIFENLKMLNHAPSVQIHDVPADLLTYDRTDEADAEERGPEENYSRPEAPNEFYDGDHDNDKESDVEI

[22] = biological target: T5, Histone deacetylase 8 (Homo sapiens, UniProt Q9BY41); test: Inhibition of HDAC8
T5 sequence (Q9BY41 whole entry): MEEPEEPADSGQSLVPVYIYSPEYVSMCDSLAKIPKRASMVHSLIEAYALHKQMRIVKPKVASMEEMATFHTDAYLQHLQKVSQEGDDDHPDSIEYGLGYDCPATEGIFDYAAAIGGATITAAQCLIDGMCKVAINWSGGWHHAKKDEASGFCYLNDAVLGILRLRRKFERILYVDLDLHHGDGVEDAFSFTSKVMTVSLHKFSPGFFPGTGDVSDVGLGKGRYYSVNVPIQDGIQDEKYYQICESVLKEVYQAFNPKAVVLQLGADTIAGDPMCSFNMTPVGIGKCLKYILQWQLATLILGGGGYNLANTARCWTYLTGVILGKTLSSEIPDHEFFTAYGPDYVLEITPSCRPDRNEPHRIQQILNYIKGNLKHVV

Compound: O=C(CCCCCNC(=O)NC(=O)c1ccc(Br)cc1)NO
- IC50 [1]: 450 nM
- IC50 [2]: 13 nM
- Ki [2]: 8 nM
- Ki [3]: 8 nM
- Ki [4]: 12 nM
- IC50 [5]: 600 nM
- Activity [6]: Active
- Ki [7]: 31 nM
- Ki [8]: 9 nM
- Ki [9]: 9 nM
- solubility [10]: 51 µM (≈ 19 µg/mL)
- Ki [11]: 6 nM
- IC50 [12]: 660 nM
- logD [13]: 1.72
- solubility thermodynamic [14]: 15 µg/mL (≈ 40.3 µM)
- half-life [15]: 53 min
- Ki [16]: 6 nM
- IC50 [17]: 870 nM
- half-life [18]: > 60 min
- Ki [19]: 13 nM
- half-life [20]: 31 min
- Ki [21]: 8 nM
- Ki [22]: 315 nM
